What was measured:
Type in all cases: cell-based
[1] = tested on: human lung fibroblast CCD8-Lu cells; assay: Quantitative real-time PCR of fibrosis genes in TGF-β-treated CCD8-Lu fibroblasts; conditions: qRT-PCR, 10 μg mitochondria or 1 μM nintedanib, 18 hours after 6 hours TGF-β
Procedure: (§1) In order to analyze the anti-fibrotic activity of mitochondria, a cell-based analysis experiment was performed using a quantitative real-time polymerase chain reaction.
(§2) CCD8-Lu cells and Wi-38 cells, which are human lung-derived fibroblasts, were cultured in DMEM medium containing 10% FBS, respectively. The cells were inoculated into a 6 well plate at about 2×10^5 cells/well and cultured for 24 hours, and then depletion conditions were performed in DMEM medium without FBS for about 24 hours. After 24 hours, the cells were treated with TGF-β at a concentration of 2.5 ng/mL, and then fibrosis of the cells was induced for 6 hours. After 6 hours, the cells were washed twice with PBS to completely remove the remaining TGF-β. Next, the mitochondria isolated from HEK293, UC-MSC and BM-MSC cells in Preparation Example 1 were mixed in DMEM medium, and the cells were treated with the mitochondria and then further cultured for 18 hours (FIG. 1). At this time, the negative control group was not treated with anything, the positive control group was treated with TGF-β alone at a concentration of 5 ng/mL, and the experimental groups were treated with 10 μg of mitochondria isolated from each cell, respectively. […]
(§3) After 18 hours of mitochondria treatment, the culture solution was removed, and the cells were washed twice with a PBS buffer solution, and 0.5 mL of RNA extract (Trizol reagent, Thermo Fisher Scientific) was added directly and then stood at ambient temperature for 10 minutes. […] After drying, about 50 μl of purified RNAase-free distilled water was added, and the quantity and purity of the obtained RNA was measured using a spectrophotometer. […]
Changes in the expression of the alpha actin smooth muscle (α-SMA) gene, a characteristic gene of myofibroblast, the CCN2 (or CTGF) gene, a characteristic gene of fibrosis, fibronectin, a characteristic gene of fibrosis, and the NOX-4 gene, a characteristic gene of fibrosis, were observed by quantitative real-time polymerase chain reaction. The GAPDH gene was quantified together to calibrate for differences in the expression.

[2] = tested on: human lung fibroblast Wi-38 cells; assay: Quantitative real-time PCR of fibrosis genes in TGF-β-treated Wi-38 fibroblasts; conditions: qRT-PCR, 10 μg mitochondria or 1 μM nintedanib, 18 hours after 6 hours TGF-β
Procedure: as §1
as §2, with “1).” for “1). At this time, the negative control group was not treated with anything, the positive control group was treated with TGF-β alone at a concentration of 5 ng/mL, and the experimental groups were treated with 10 μg of mitochondria isolated from each cell, respectively.”
as §3

[3] = tested on: human lung fibroblast CCD8-Lu cells; assay: Western blotting of CTGF expression (FIG. 6); conditions: western blotting (FIG. 6), 5 μg mitochondria, 18 hours after 6 hours 2.5 ng/mL TGF-β
Procedure: In order to observe whether the expression of CTGF, a key gene for fibrosis, is regulated by mesenchymal stem cell-derived mitochondria, a cell-based analysis experiment was performed using a Western analysis method.
CCD8-Lu cells (FIG. 6A) and Wi-38 cells (FIG. 6B), which are human lung-derived fibroblasts, were cultured in DMEM medium containing 10% FBS. The cells were inoculated into a 6 well plate at about 2×10^5 cells/well and cultured for 24 hours, and then depletion conditions were performed in DMEM medium without FBS for about 24 hours.
After 24 hours, the cells were treated with TGF-β at a concentration of 2.5 ng/mL, and then fibrosis of the cells was induced for 6 hours. After 6 hours, the cells were washed twice with PBS to completely remove TGF-β. Next, in the same manner as in Preparation Example 1, the mitochondria isolated from UC-MSC and HEK293 cells were mixed in DMEM medium, and the cells were treated with the mitochondria and then further cultured for 18 hours (FIG. 3). […]
The separated supernatant was obtained and transferred to a new microtube, and then protein was quantified using the BCA analysis method. […]

[4] = tested on: human lung fibroblast CCD8-Lu cells; assay: Cell immunochemical staining of collagen 1A and fibronectin (FIG. 5); conditions: immunostaining (FIG. 5), 5 μg mitochondria or 1 mM pirfenidone, after 6 hours 2.5 ng/mL TGF-β
Procedure: In order to analyze the anti-fibrotic activity of stem cell-derived mitochondria, a cell-based analysis experiment was performed using a […].
CCD8-Lu cells, which are human lung-derived fibroblasts, were cultured in DMEM medium containing 10% FBS. Thereafter, the cells were inoculated into a 24 well plate at about 2×10^4 cells/well, cultured for 24 hours, and then reacted in DMEM medium without FBS for about 24 hours. After 24 hours, the cells were treated with TGF-β at a concentration of 2.5 ng/mL, and then fibrosis of the cells was induced for 6 hours. After 6 hours, the cells were washed twice with PBS to completely remove TGF-β. Next, the mitochondria isolated from umbilical cord blood mesenchymal stem cell UC-MSC, bone marrow mesenchymal stem cell BM-MSC, dedifferentiated stem cell iPSC and HEK293 cells obtained in Preparation Example 1 were mixed in DMEM medium, and the cells were treated with the mitochondria and then further cultured for 18 hours (FIG. 4). […]
Immunohistochemical analysis for each sample was performed as follows. […] The nucleus was stained using DAPI (4,6-diamidino-2-phenylindole), and analysis of differences in fluorescence intensity was performed using a fluorescence microscope.

Row | Structure (SMILES) | expression of CTGF gene induced by TGF-β [1] | expression of NOX-4 gene induced by TGF-β [1] | expression of alpha actin smooth muscle (α-SMA) gene induced by TGF-β [1] | expression of CTGF gene induced by TGF-β [2] | expression of alpha actin smooth muscle (α-SMA) gene induced by TGF-β [2] | expression of CTGF protein induced by TGF-β [3] | expression of collagen 1A induced by TGF-β (fluorescence intensity) [4] | expression of fibronectin induced by TGF-β (fluorescence intensity) [4]
1 | COC(=O)c1ccc2c(c1)NC(=O)/C2=C(\Nc1ccc(N(C)C(=O)CN2CCN(C)CC2)cc1)c1ccccc1 [nintedanib] | weakly inhibited or hardly inhibited | weakly inhibited or hardly inhibited | weakly inhibited or hardly inhibited | weakly inhibited or hardly inhibited | weakly inhibited or hardly inhibited | hardly inhibited | – | –
2 | Cc1ccc(=O)n(-c2ccccc2)c1 [pirfenidone] | – | – | – | – | – | – | weakly inhibited or hardly inhibited | weakly inhibited or hardly inhibited

From patent US20230405052A1, “PHARMACEUTICAL COMPOSITION FOR PREVENTING OR TREATING FIBROSIS, COMPRISING ISOLATED MITOCHONDRIA” (Paean Biotechnology Inc., priority 2020, published 2023)
